Columns and labels:
GPR120 = target: T1, GPR120 (Mus musculus, UniProt Q7TMA4); assay: Co-immunoprecipitation of β-arrestin 2 with GPR120 in colon lysates of DSS mice; format: in vivo
T1 construct: Colon lysates (˜900 μg proteins) from 6 mice of each experimental group were pooled; from tissue; host or cells: mouse colon (DSS colitis model)
T1 sequence (Q7TMA4 1-361): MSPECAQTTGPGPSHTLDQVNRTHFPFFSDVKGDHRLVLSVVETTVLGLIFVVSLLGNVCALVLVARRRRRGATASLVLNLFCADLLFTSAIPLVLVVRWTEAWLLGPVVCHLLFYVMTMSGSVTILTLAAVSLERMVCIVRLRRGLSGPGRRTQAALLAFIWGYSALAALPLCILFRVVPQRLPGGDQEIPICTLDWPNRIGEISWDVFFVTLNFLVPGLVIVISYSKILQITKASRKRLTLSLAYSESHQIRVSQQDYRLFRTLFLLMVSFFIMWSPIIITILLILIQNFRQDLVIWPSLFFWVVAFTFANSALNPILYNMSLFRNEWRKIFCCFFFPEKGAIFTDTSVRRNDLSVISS
Method: (§1) The efficiency of DFL in activating the GPR120 and/or GPR40 receptors was tested.
(§2) Agonist-induced GPR120 can engage multiple signalling pathways to regulate distinct physiological outcomes. After ligand binding, B-arrestins, such as B-arrestin 2 can associate with the cytoplasmic domains of GPR120 and couple the receptor to specific downstream signaling pathways (FIG. 9). For this reason, we verified the agonist efficiency in activating GPR120 and GPR40 by immunoprecipitation. Colon lysates (˜900 μg proteins) from 6 mice of each experimental group were pooled, precleared with protein A/G plus-agarose (Santa Cruz) and then incubated with the antibody used for immunoprecipitation (anti-GPR120 or anti-GPR40, Abcam) at 4° C. for 16 h, followed by incubation with protein A/G plus-agarose for 5 h. The agarose beads were then collected by centrifugation, washed four times with lysis buffer, and heated to 95° C. for 5 min after adding Laemmli buffer. The resulting immunoprecipitates were separated by SDS-PAGE and probed with the anti-β-arrestin 2 antibody (Santa Cruz).
(§3) Upon western blotting, a densitometric analysis of the blots was performed using Image J. FIGS. 10 and 11 show the ratio between co-immunoprecipitated β-arrestin 2 and GPR120 (FIG. 10) or GPR40 levels (FIG. 11) and the results of the blotting.

GPR40 = target: T2, GPR40 (Mus musculus, UniProt Q76JU9); assay: Co-immunoprecipitation of β-arrestin 2 with GPR40 in colon lysates of DSS mice; format: in vivo; details: pooled colon lysates, day 39; compared to DSS or DSS+vehicle
T2 construct: Colon lysates (˜900 μg proteins) from 6 mice of each experimental group were pooled; from tissue; host or cells: mouse colon (DSS colitis model)
Method: as §1, §2, §3

human GPR120 [1] = target: T3, human GPR120 (Homo sapiens, UniProt Q5NUL3); assay: Internalization of GPR120 (Enzyme Fragment Complementation, DiscoverX); format: cell-based; details: at 100 μM
T3 sequence (Q5NUL3 1-361): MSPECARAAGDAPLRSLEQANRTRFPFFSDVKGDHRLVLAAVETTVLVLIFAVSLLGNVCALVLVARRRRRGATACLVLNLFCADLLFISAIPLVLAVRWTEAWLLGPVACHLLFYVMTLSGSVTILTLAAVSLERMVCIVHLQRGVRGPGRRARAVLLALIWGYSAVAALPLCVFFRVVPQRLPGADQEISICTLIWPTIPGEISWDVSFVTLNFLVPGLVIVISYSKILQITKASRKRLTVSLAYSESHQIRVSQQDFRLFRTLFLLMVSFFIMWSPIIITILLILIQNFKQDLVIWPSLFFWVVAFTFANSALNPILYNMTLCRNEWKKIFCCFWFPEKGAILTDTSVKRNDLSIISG

human GPR120 [2] = target: T3, human GPR120; assay: Activation of GPR120 receptor; format: cell-based

T2 sequence (Q76JU9 whole entry): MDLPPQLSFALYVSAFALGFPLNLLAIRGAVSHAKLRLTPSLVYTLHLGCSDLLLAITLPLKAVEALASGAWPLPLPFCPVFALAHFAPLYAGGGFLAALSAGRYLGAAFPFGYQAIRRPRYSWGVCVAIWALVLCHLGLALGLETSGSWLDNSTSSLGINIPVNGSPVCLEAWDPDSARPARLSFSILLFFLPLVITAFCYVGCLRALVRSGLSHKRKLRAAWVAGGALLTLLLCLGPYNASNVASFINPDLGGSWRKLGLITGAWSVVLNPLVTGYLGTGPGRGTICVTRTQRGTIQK

SMILES: Cc1cc(F)cc(C)c1NS(=O)(=O)c1cccc(CCCCCCC(=O)O)c1 [DFL23806, 7-(3-(N-(4-fluoro-2,6-dimethylphenyl)sulfamoyl)phenyl)heptanoic acid]
- selectivity GPR120 versus GPR40 (GPR120; from β-arrestin 2 co-immunoprecipitation with GPR120 and GPR40): GPR120 selective agonist
- association between GPR120 and β-arrestin 2 (ratio co-immunoprecipitated β-arrestin 2 / GPR120) (GPR120; pooled colon lysates, day 39, DFL 90 mg/kg, compared to control groups or DSS+5-ASA 60 mg/Kg): higher compared to control groups
- GPR40 and β-arrestin 2 association (ratio co-immunoprecipitated β-arrestin 2 / GPR40) (GPR40): no increase
- efficacy of internalization of the human GPR120 receptor (human GPR120 [1]): 59.1%
- AC50 (human GPR120 [2]): 3.9 µM
